# Data published in patent US12630529B2, “GCN2 modulator compounds” (ALESTA THERAPEUTICS BV, priority 2020, dated 2026).
# Target: T1, GCN2 (Mus musculus, UniProt Q9QZ05)
# T1 construct: endogenous in cells; host or cells: Neuro 2a (N2a)
# Assay: GCN2 inhibition cell-based assay (P-GCN2 Western blot in Neuro 2a cells)
# Conditions: amino acid deprived media (DMEM lacking L-cysteine and methionine), 3 hours
# T1 sequence (Q9QZ05 whole entry): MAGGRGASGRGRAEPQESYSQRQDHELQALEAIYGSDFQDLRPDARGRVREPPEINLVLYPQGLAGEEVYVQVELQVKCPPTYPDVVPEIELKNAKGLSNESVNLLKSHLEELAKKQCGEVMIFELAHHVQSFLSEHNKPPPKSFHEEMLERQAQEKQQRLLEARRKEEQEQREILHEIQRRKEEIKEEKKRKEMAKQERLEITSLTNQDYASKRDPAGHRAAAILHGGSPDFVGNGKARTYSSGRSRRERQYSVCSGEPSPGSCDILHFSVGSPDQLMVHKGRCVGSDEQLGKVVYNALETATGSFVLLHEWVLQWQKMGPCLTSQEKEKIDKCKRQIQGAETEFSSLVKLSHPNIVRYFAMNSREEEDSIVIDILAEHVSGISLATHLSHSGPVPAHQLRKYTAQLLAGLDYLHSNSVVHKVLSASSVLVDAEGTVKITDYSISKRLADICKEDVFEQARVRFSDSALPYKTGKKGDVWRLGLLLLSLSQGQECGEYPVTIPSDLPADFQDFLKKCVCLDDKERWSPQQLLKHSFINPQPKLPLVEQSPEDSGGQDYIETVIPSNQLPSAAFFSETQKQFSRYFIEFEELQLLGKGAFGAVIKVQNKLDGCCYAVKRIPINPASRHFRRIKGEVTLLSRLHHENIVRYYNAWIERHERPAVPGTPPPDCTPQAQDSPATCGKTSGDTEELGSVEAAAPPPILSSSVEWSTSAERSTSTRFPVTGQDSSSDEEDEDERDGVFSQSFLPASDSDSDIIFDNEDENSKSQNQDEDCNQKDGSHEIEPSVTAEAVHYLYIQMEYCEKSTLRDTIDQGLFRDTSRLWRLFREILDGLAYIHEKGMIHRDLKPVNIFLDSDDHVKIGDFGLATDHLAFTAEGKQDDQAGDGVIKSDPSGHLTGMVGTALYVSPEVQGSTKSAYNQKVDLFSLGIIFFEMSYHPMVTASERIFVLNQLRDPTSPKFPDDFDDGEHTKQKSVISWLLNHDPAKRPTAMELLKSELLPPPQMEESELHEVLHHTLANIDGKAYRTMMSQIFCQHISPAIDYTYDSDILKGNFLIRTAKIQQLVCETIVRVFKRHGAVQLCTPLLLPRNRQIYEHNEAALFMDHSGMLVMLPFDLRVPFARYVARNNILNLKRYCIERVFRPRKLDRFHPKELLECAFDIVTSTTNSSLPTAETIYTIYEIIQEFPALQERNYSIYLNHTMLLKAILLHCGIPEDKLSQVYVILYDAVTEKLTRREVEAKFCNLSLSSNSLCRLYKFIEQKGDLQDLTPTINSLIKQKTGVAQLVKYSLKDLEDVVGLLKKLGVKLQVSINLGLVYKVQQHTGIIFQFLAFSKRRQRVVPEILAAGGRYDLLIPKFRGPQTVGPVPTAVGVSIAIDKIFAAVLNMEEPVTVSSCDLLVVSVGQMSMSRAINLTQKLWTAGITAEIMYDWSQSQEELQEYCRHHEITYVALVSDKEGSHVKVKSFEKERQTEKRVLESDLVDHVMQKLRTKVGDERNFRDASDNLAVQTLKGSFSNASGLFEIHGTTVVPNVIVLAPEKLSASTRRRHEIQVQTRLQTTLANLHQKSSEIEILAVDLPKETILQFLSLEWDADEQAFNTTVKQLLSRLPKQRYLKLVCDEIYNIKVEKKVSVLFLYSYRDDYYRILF
row,IC50 [nM],SMILES
1,< 10,Nc1ncc2cc(-c3c(F)ccc(NS(=O)(=O)c4cc(Cl)ccc4Cl)c3F)ccc2n1 [Compound 2]
2,< 10,COc1ncc(Cl)cc1S(=O)(=O)Nc1ccc(F)c(-c2ccc3nc(N)ncc3c2)c1F [Compound 1]
